Results from patent US20230072421A1, “TARGETED RADIOPHARMACEUTICALS FOR THE DIAGNOSIS AND TREATMENT OF PROSTATE CANCER” (Bayer AS, priority 2019, published 2023).

Legend:
[1] = system: LNCaP human prostate cancer cells; assay: LNCaP xenograft efficacy study (T/C tumor area); type: in vivo, SCID mice
Summary of the method: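 SCID mice with testosterone pellet bearing s.c. flank LNCaP xenografts (5×10^6 cells in Matrigel) were treated i.v. with a defined radioactive dose once tumors reached 35-50 mm^2 (n=10/group). Tumor area (caliper, longest diameter × perpendicular) measured 2-3× weekly; T/C ratio calculated from tumor areas when vehicle group closed.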

[2] = Biodistribution study in LNCaP tumor-bearing mice (Th227 counted in organs); type: in vivo, SCID mice
Summary of the method: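 SCID mice bearing testosterone pellets and subcutaneous LNCaP flank tumors (~50 mm^2) received a single intravenous dose of the radioactive compound. At set time points, n=3 animals were sacrificed, and organs were removed, weighed and counted for Th227 on a Germanium detector.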

[3] = Example II, 750 kBq/kg weekly for 5 weeks, day 120
[4] = 0.25 h, 500 kBq/kg, study b2999

## O=C([O-])CN1CCN(CC(=O)[O-])CCN(CC(=O)NCC2CCC(C(=O)NC(Cc3ccc4ccccc4c3)C(=O)NCCCCC(NC(=O)NC(CCC(=O)O)C(=O)O)C(=O)O)CC2)CCN(CC(=O)[O-])CC1.[227Th+4] [Example 1-B-227Th, [^227Th]Thorium (3S,10S,14S)-3-[(naphthalen-2-yl)methyl]-1,4,12-trioxo-1-{(1r,4S)-4-[(2-{4,7,10-tris[(carboxy-kappaO)methyl]-1,4,7,10-tetraazacyclododecan-1-yl-kappa^4N^1,N^4,N^7,N^10}acetamido)methyl]cyclohexyl}-2,5,11,13-tetraazahexadecane-10,14,16-tricarboxylate]
[1]; [3]
  Mean tumor size: 20 mm^2
  Tumor response: full response
[1]; Example II, day 33 after start of therapy, 750 kBq/kg weekly for 5 weeks
  T/Carea: 0.18
[1]; Example III, day 64 after start of therapy, single treatment 1.5 MBq/kg
  T/Carea: 0.51
[1]; Example V, day 27 after start of therapy, once 750 kBq/kg
  T/Carea: 0.29
[2]; [4]
  Th-227 in Blood: 1.68 % ID Th-227/g organ
  Th-227 in Femur and tibia: 1.31 % ID Th-227/g organ
  Th-227 in Kidneys: 114.94 % ID Th-227/g organ
  Th-227 in Liver: 0.92 % ID Th-227/g organ
  Th-227 in Salivary gland: 10.22 % ID Th-227/g organ
  Th-227 in Spleen: 6.51 % ID Th-227/g organ
  Th-227 in Tumor: 8.41 % ID Th-227/g organ
  Th-227 in prostate: 8.53 % ID Th-227/g organ
[2]; 0.25 h, 1500 kBq/kg
  Th-227 in Blood: 6.68% ID Th-227/g organ
  Th-227 in Liver: 2.01% ID Th-227/g organ
  Th-227 in Spleen: 11.41% ID Th-227/g organ
  Th-227 in Tumor: 6.89% ID Th-227/g organ
  Th-227 in bone: 2.42% ID Th-227/g organ
  Th-227 in brain: 0.27% ID Th-227/g organ
  Th-227 in kidney: 36.39% ID Th-227/g organ
  Th-227 in large intestine: 1.08% ID Th-227/g organ
  Th-227 in lung: 4.42% ID Th-227/g organ
  Th-227 in muscle: 1.06% ID Th-227/g organ
  Th-227 in prostate: 7.80% ID Th-227/g organ
  Th-227 in salivary glands: 2.81% ID Th-227/g organ
  Th-227 in small intestine: 1.14% ID Th-227/g organ
[2]; 1 hr, 500 kBq/kg, study b2999
  Th-227 in Blood: 0.37 % ID Th-227/g organ
  Th-227 in Femur and tibia: 0.78 % ID Th-227/g organ
  Th-227 in Kidneys: 150.81 % ID Th-227/g organ
  Th-227 in Liver: 0.41 % ID Th-227/g organ
  Th-227 in Salivary gland: 17.15 % ID Th-227/g organ
  Th-227 in Spleen: 6.04 % ID Th-227/g organ
  Th-227 in Tumor: 10.87 % ID Th-227/g organ
  Th-227 in prostate: 9.05 % ID Th-227/g organ
[2]; 1 hr, 1500 kBq/kg
  Th-227 in Blood: 3.85% ID Th-227/g organ
  Th-227 in Liver: 1.99% ID Th-227/g organ
  Th-227 in Spleen: 9.16% ID Th-227/g organ
  Th-227 in Tumor: 7.34% ID Th-227/g organ
  Th-227 in bone: 5.16% ID Th-227/g organ
  Th-227 in brain: 0.07% ID Th-227/g organ
  Th-227 in kidney: 38.11% ID Th-227/g organ
  Th-227 in large intestine: 0.57% ID Th-227/g organ
  Th-227 in lung: 2.88% ID Th-227/g organ
  Th-227 in muscle: 0.76% ID Th-227/g organ
  Th-227 in prostate: 1.15% ID Th-227/g organ
  Th-227 in salivary glands: 1.62% ID Th-227/g organ
  Th-227 in small intestine: 0.84% ID Th-227/g organ
[2]; 4 hr, 1500 kBq/kg
  Th-227 in Blood: 1.05% ID Th-227/g organ
  Th-227 in Liver: 1.32% ID Th-227/g organ
  Th-227 in Spleen: 6.17% ID Th-227/g organ
  Th-227 in Tumor: 13.09% ID Th-227/g organ
  Th-227 in bone: 7.25% ID Th-227/g organ
  Th-227 in brain: 0.04% ID Th-227/g organ
  Th-227 in kidney: 32.13% ID Th-227/g organ
  Th-227 in large intestine: 0.76% ID Th-227/g organ
  Th-227 in lung: 1.55% ID Th-227/g organ
  Th-227 in muscle: 0.37% ID Th-227/g organ
  Th-227 in prostate: 1.06% ID Th-227/g organ
  Th-227 in salivary glands: 0.72% ID Th-227/g organ
  Th-227 in small intestine: 0.74% ID Th-227/g organ
[2]; 6 hr, 500 kBq/kg, study b2999
  Th-227 in Blood: 0.06 % ID Th-227/g organ
  Th-227 in Femur and tibia: 0.31 % ID Th-227/g organ
  Th-227 in Kidneys: 67.34 % ID Th-227/g organ
